Kd and IC50 data for one molecule are collected here from patent publication US20250188093A1, “TYK2 INHIBITORS AND USES THEREOF” (Alumis Inc., priority 2022, published 2025).

Experiment [1] addresses T1, human TYK2 (JH2domain-pseudokinase) (Homo sapiens, UniProt P29597).
T1 construct: host or cells: transiently transfected HEK293 cells; unpurified extract
Briefly: TYK2 JH2 domain binding assay (KINOMEscan). On the procedure: Binding constants for the compounds described herein against the JH2 domain were determined by the following protocol for a KINOMEscan® assay (DiscoveRx). A fusion protein of a partial length construct of human TYK2 (JH2domain-pseudokinase) (amino acids G556 to D888 based on reference sequence NP_003322.3) and the DNA binding domain of NFkB was expressed in transiently transfected HEK293 cells. From these HEK 293 cells, extracts were prepared in M-PER extraction buffer (Pierce) in the presence of Protease Inhibitor Cocktail Complete (Roche) and Phosphatase Inhibitor Cocktail Set II (Merck) per manufacturers' instructions. The TYK2 (JH2domain-pseudokinase) fusion protein was labeled with a chimeric double-stranded DNA tag containing the NFkB binding site fused to an amplicon for qPCR readout, which was added directly to the expression extract (the final concentration of DNA-tag in the binding reaction is 0.1 nM).
Streptavidin-coated magnetic beads (Dynal M280) were treated with a biotinylated small molecule ligand for 30 minutes at room temperature to generate affinity resins the binding assays. The liganded beads were blocked with excess biotin and washed with blocking buffer (SeaBlock (Pierce), 1% BSA, 0.05% Tween 20, 1 mM DTT) to remove unbound ligand and to reduce nonspecific binding.
The binding reaction was assembled by combining 16 μl of DNA-tagged kinase extract, 3.8 μl liganded affinity beads, and 0.18 μl test compound (PBS/0.05% Tween 20/10 mM DTT/0.1% BSA/2 μg/ml sonicated salmon sperm DNA)]. Extracts were used directly in binding assays without any enzyme purification steps at a ≥10,000-fold overall stock dilution (final DNA-tagged enzyme concentration <0.1 nM). Extracts were loaded with DNA-tag and diluted into the binding reaction in a two-step process. First extracts were diluted 1:100 in 1× binding buffer (PBS/0.05% Tween 20/10 mM DTT/0.1% BSA/2 μg/ml sonicated salmon sperm DNA) containing 10 nM DNA-tag. This dilution was allowed to equilibrate at room temperature for 15 minutes and then subsequently diluted 1:100 in 1× binding buffer. Test compounds were prepared as 111× stocks in 100% DMSO. Kds were determined using an 11-point 3-fold compound dilution series with three DMSO control points. All compounds for Kd measurements were distributed by acoustic transfer (non-contact dispensing) in 100% DMSO. The compounds were then diluted directly into the assays such that the final concentration of DMSO was 0.9%. All reactions were performed in polypropylene 384-well plates. Each was a final volume of 0.02 mL. Assays were incubated with shaking for 1 hour at room temperature. Then the beads were pelleted and washed with wash buffer (1×PBS, 0.05% Tween 20) to remove displaced kinase and test compound. The washed based were re-suspended in elution buffer (1×PBS, 0.05% Tween 20, 0.5 μM non-biotinylated affinity ligand) and incubated at room temperature with shaking for 30 minutes. The kinase concentration in the eluates was measured by qPCR. qPCR reactions were assembled by adding 2.5 μL of kinase eluate to 7.5 μL of qPCR master mix containing 0.15 μM amplicon primers and 0.15 μM amplicon probe. The qPCR protocol consisted of a 10 minute hot start at 95° C., followed by 35 cycles of 95° C. for 15 seconds, 60° C. for 1 minute.
Test compounds were prepared as 111× stocks in 100% DMSO. Kds were determined using an 11-point 3-fold compound dilution series with three DMSO control points. All compounds for Kd measurements were distributed by acoustic transfer (non-contact dispensing) in 100% DMSO. The compounds were then diluted directly into the assays such that the final concentration of DMSO was 0.9%. The Kds were determined using a compound top concentration of 30,000 nM. Kd measurements were performed in duplicate.
Binding constants (Kds) were calculated with a standard dose-response curve using the Hill equation: […]
The Hill Slope was set to −1. […]

In another experiment the target is T2, TYK2 JH1 (Homo sapiens, UniProt P29597).
T2 construct: TYK2 JH1
T2 sequence (P29597 897-1176 limits assumed): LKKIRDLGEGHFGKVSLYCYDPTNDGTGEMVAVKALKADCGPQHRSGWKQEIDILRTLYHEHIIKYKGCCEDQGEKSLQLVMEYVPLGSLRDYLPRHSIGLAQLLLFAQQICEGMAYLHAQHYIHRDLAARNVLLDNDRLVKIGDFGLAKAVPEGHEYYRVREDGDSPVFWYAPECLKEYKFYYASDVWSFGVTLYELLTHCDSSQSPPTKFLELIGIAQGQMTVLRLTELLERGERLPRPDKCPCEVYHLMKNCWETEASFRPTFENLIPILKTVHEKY
Briefly: KINOMEscan binding, TYK2 JH1.

The target in the next experiment is T3, JAK3 JH1 (Homo sapiens, UniProt P52333).
T3 construct: JAK3 JH1
T3 sequence (P52333 822-1111 limits assumed): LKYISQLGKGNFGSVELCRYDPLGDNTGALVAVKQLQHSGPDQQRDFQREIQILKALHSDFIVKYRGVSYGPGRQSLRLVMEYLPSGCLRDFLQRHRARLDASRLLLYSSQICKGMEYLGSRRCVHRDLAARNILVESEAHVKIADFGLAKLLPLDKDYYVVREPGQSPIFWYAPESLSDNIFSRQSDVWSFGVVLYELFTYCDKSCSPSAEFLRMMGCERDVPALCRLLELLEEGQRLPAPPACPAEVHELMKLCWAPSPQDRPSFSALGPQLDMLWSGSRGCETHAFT
Briefly: KINOMEscan binding, JAK3 JH1.

The target in a further experiment is T4, JAK2 JH2 (Homo sapiens, UniProt O60674).
T4 construct: JAK2 JH2
T4 sequence (O60674 545-809 limits assumed): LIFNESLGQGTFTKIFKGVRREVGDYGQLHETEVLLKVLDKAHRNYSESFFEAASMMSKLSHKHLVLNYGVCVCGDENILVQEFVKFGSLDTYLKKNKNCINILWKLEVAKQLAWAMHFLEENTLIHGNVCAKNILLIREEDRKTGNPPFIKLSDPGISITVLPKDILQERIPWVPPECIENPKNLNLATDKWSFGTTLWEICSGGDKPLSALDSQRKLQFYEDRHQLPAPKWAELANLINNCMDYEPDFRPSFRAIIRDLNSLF
Kind of experiment: KINOMEscan binding, JAK2 JH2.

The next experiment addresses T5, JAK2 JH1 (Homo sapiens, UniProt O60674).
T5 construct: JAK2 JH1
Briefly: KINOMEscan binding, JAK2 JH1.

The target in the next experiment is T6, JAK1 JH2 (Homo sapiens, UniProt P23458).
T6 construct: JAK1 JH2
T6 sequence (P23458 583-855 limits assumed): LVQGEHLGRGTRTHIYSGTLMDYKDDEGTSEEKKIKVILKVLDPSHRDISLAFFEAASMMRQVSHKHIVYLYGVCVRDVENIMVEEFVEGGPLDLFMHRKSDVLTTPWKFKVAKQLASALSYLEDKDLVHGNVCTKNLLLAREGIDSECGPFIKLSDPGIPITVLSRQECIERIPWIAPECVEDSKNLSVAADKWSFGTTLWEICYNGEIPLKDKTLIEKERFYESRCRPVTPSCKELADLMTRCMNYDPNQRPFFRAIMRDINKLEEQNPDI
Kind of experiment: KINOMEscan binding, JAK1 JH2.

Another experiment has as its target T7, JAK1 JH1 (Homo sapiens, UniProt P23458).
T7 construct: JAK1 JH1
Kind of experiment: KINOMEscan binding, JAK1 JH1.

The next experiment relates to IFNa, PBMCs, p-STAT3. Briefly: IFNa induced p-STAT3 in PBMCs. The format is cell-based. Conditions: PBMC; human PBMCs, IFNa stimulation.
The subject of another experiment is IFNa, PBMCs, p-STAT5. Kind of experiment: INFα induced pSTAT5 in human PBMC. The format is cell-based. To be noted: 0.25 h, IFNa 5000 units/ml, 15 minutes. As to the method:
Fresh Human PBMCs were resuspended in RPMI 1640 medium with 10% FBS. Cells were seeded in a round bottom 96-well plate at the concentration of 200,000 cells/well. A 10-point dilution series of test compound (top dose 10 uM, 1:5 dilution) was added to the well using the liquid dispenser (Tecan D300e) and incubated for 1 hour at 37 C. Then human INFα recombinant protein (R&D Systems) was added to the well at the final concentration of 5000 units/ml and incubated for 15 minutes at 37 C. Cell lysates were prepared and analyzed by Phospho STAT5 (Tyr693) Kit (Meso Scale Discovery) following manufacturer's protocol.
For calculation of the inhibition rate, the relative pSTAT5 signal of each well=pSTAT5 signal of each well−the average pSTAT5 signal of baseline.
The inhibition %=(the average pSTAT5 signal of INFα treatment wells−the relative of pSTAT5 signal in each compound containing well)/the average pSTAT5 signal of INFα treatment wells*100%
The curve was plotted as the inhibition % (y-axis) vs. compounds concentration (x-axis) and is fitted with log (inhibitor) vs. normalized response—Variable slope by GraphPad Prism7.0.

Molecules are shown by their SMILES. A value given as a limit tells only on which side of the number the result lay.

T5 sequence (O60674 849-1124 limits assumed): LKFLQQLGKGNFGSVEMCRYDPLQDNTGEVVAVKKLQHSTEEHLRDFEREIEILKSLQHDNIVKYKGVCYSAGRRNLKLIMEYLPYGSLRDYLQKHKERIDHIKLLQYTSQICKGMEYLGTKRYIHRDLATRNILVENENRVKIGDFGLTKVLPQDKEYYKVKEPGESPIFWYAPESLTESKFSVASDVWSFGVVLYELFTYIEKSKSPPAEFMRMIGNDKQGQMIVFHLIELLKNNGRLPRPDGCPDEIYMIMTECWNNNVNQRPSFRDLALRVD
T1 sequence (P29597 556-888): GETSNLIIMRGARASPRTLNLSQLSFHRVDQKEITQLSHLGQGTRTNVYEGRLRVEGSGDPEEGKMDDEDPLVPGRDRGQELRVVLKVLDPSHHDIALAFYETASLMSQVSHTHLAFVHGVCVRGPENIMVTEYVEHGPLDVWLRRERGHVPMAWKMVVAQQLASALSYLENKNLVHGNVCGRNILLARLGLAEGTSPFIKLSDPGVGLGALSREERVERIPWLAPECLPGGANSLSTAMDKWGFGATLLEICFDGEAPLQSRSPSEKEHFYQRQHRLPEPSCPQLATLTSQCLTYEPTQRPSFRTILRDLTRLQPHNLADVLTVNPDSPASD
T7 sequence (P23458 875-1153 limits assumed): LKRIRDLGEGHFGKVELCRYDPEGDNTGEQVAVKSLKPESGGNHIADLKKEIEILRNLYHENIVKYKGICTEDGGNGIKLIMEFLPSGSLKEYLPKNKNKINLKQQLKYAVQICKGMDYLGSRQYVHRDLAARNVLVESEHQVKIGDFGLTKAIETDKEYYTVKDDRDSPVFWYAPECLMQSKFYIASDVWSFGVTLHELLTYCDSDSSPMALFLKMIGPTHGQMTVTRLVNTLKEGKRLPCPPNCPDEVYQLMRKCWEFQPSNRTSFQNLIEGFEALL

As to `CNc1cc2nn3c(cnc13)C(=O)N[C@@H]1CCC[C@H]1OCc1cc(c3nn(C)nc3c1)N2` [Compound 4, (1^5E,3^4E,6^1R,6^2R)-3^2-Methyl-1^8-(methylamino)-3^2H-5-oxa-2,7-diaza-1(6,3),3(4,6)-diimidazo[1,2-b]pyridazina-6(1,2)-cyclopentanacyclooctaphan-8-one], the Kd in experiment [1] is below 0.01 µM; at TYK2 JH1 it was 10 to 30 µM; at JAK3 JH1, 10 to 30 µM; on JAK2 JH2, 1 to 10 µM; on JAK2 JH1, 1 to 10 µM; at JAK1 JH2 it was 0.01 to 1 µM. The Kd at JAK1 JH1 was at least 30 µM. The IC50 was below 0.1 µM in the experiment on IFNa, PBMCs, p-STAT3 and below 0.1 µM in the experiment on IFNa, PBMCs, p-STAT5.
